The source of these data is ChEMBL document CHEMBL5512695, “Discovery of N-Substituted Acetamide Derivatives as Promising P2Y14R Antagonists Using Molecular Hybridization Based on Crystallographic Overlay” (J Med Chem, 2024).

Data set [1] concerns the target T1, P2Y purinoceptor 14 (Homo sapiens) (UniProt Q15391).
T1 sequence (whole entry): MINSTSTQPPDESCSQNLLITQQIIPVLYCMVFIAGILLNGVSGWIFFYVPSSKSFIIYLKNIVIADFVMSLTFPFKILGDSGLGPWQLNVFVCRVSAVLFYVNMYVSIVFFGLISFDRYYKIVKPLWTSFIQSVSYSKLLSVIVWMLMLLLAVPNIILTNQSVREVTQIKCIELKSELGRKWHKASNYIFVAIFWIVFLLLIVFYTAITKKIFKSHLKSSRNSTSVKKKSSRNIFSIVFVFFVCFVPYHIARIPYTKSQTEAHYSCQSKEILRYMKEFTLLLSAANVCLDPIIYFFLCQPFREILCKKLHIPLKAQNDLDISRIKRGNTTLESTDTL
The conditions noted are these: time 30.0 min.

The target of data set [2] is T2, P2Y purinoceptor 14 (Homo sapiens, UniProt Q15391).
T2 sequence (Q15391 whole entry): T1 sequence (whole entry)
The data set can be described thus: Antagonist activity at human P2Y14R stably expressed in HEK293 cells assessed as inhibition of forskolin-[…] cAMP production incubated for 30 mins by cAMP-Glo assay. The format is functional, cell-based. In general terms: Cyclic AMP is a second messenger, typically raised through Gs and lowered through Gi signalling.

Data set [3] addresses P2Y purinoceptor 6 (Homo sapiens, UniProt Q15077). Kind of data set: Inhibition of human P2Y6R stably expressed in UDP-stimulated HEK293 cells incubated for 0.5 hrs by IP3 production assay. The format is functional, cell-based.
Data set [4] addresses P2Y purinoceptor 12 (Homo sapiens, UniProt Q9H244). The data set can be described thus: Inhibition of human P2Y12R stably expressed in 2-MeSADP -stimulated HEK293 cells incubated for 0.5 hrs by cAMP production assay. The format is functional, cell-based.
The subject of data set [5] is HUVEC. The data set can be described thus: Cytotoxicity against MSU/LPS-stimulated HUVEC cells assessed as decrease in cell viability at 256 uM incubated for 24 hrs by SRB assay. Format: toxicity, cell-based. The note with it: human. On the technique in general: The SRB assay estimates cell density from bound dye.
Data set [6] has as its system HEK-293T. The data set can be described thus: Cytotoxicity against MSU/LPS-stimulated HEK293T cells assessed as decrease in cell viability at 256 uM incubated for 24 hrs by SRB assay. The note with it: human. Format: toxicity, cell-based.
For data set [7], the target named is T3, Cytochrome P450 1A2 (Homo sapiens, UniProt P05177).
T3 sequence (P05177 whole entry): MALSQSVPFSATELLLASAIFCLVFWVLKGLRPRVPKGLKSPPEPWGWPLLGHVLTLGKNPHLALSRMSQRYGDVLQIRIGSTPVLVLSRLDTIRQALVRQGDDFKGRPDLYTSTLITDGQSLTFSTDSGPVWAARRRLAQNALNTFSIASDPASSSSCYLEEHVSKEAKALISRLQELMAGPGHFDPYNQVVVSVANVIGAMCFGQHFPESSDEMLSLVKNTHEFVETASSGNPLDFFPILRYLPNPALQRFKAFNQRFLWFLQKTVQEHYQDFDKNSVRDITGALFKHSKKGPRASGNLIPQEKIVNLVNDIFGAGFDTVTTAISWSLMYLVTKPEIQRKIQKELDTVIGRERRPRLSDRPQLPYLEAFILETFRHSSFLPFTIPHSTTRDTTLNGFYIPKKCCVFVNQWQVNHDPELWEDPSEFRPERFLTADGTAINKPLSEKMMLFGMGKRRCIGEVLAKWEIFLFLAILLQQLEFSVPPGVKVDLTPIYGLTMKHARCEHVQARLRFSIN
Kind of data set: Inhibition of CYP1A2 in human liver microsomes using phenacetin as substrate preincubated for 10 mins followed by substrate addition measured after 30 mins by LC/MS analysis. Format: ADME, Microsome. On the technique in general: Liver microsomes are vesicles of endoplasmic reticulum, rich in cytochrome P450 enzymes.

Data set [8] deals with Cytochrome P450 2C9 (Homo sapiens, UniProt P11712). Kind of data set: Inhibition of CYP2C9 in human liver microsomes using diclofenac as substrate preincubated for 10 mins followed by substrate addition measured after 30 mins by LC/MS analysis. Format: ADME, Microsome.
Data set [9] concerns the target Cytochrome P450 2C19 (Homo sapiens, UniProt P33261). The data set can be described thus: Inhibition of CYP2C19 in human liver microsomes using S-mephenytoin as substrate preincubated for 10 mins followed by substrate addition measured after 30 mins by LC/MS analysis. The format is ADME, Microsome.
The target in data set [10] is Cytochrome P450 2D6 (Homo sapiens, UniProt P10635). Kind of data set: Inhibition of CYP2D6 in human liver microsomes using dextromethorphan as substrate preincubated for 10 mins followed by substrate addition measured after 30 mins by LC/MS analysis. The format is ADME, Microsome.
Data set [11] addresses Cytochrome P450 3A4 (Homo sapiens, UniProt P08684). Kind of data set: Inhibition of CYP3A4 in human liver microsomes using midazolam as substrate preincubated for 10 mins followed by substrate addition measured after 30 mins by LC/MS analysis. Format: ADME, Microsome.
The target of data set [12] is Voltage-gated inwardly rectifying potassium channel KCNH2 (Homo sapiens, UniProt Q12809). Kind of data set: Inhibition of hERG expressed in HEK293 by whole cell Q-patch analysis. The format is toxicity, cell-based.
Data set [13] is described as follows: Stability in SIF assessed as half life. Format: ADME.
Data set [14] is described as follows: Stability in SGF assessed as half life. Format: ADME.
A short description of data set [15]: Stability in human liver microsomes assessed as half life measured for 45 mins by LC-MS/MS analysis. The format is ADME, Microsome.
Data set [16] is described as follows: Cmax in SD […] at 10 mg/kg, iv measured for 24 hrs. The format is ADME, organism-based. The conditions noted are these: in vivo.
Data set [17] in a line: Half life in SD […] at 10 mg/kg, iv measured for 24 hrs. The format is ADME, organism-based. The note with it: in vivo.
Data set [18] is described as follows: Tmax in SD […] at 10 mg/kg, iv measured for 24 hrs. The conditions noted are these: in vivo. Format: ADME, organism-based.
Data set [19] in a line: AUC (0 to 24 hrs) in SD […] at 10 mg/kg, iv. The format is ADME, organism-based. The conditions noted are these: in vivo.
A short description of data set [20]: Clearance in SD […] at 10 mg/kg, iv measured for 24 hrs. The format is ADME, organism-based. The note with it: in vivo.
Data set [21] in a line: Cmax in SD […] at 20 mg/kg, po measured for 24 hrs. Format: ADME, organism-based. The note with it: in vivo.
A short description of data set [22]: Half life in SD […] at 20 mg/kg, po measured for 24 hrs. Format: ADME, organism-based. The conditions noted are these: in vivo.
Data set [23] is described as follows: Tmax in SD […] at 20 mg/kg, po measured for 24 hrs. The format is ADME, organism-based. The note with it: in vivo.
Data set [24] can be described thus: AUC (0 to 24 hrs) in SD […] at 20 mg/kg, po. Format: ADME, organism-based. The note with it: in vivo.
A short description of data set [25]: Clearance in SD […] at 20 mg/kg, po measured for 24 hrs. The format is ADME, organism-based. The conditions noted are these: in vivo.
Data set [26] can be described thus: Oral bioavailability in SD […] at 20 mg/kg measured for 24 hrs. The format is ADME, organism-based. The conditions noted are these: in vivo.
Setting [27] is: HEK293, filed as antagonist, dose 100.0 nM.

pIC50: −log10 of the molar value.

Sequence of Cytochrome P450 3A4 (P08684 whole entry): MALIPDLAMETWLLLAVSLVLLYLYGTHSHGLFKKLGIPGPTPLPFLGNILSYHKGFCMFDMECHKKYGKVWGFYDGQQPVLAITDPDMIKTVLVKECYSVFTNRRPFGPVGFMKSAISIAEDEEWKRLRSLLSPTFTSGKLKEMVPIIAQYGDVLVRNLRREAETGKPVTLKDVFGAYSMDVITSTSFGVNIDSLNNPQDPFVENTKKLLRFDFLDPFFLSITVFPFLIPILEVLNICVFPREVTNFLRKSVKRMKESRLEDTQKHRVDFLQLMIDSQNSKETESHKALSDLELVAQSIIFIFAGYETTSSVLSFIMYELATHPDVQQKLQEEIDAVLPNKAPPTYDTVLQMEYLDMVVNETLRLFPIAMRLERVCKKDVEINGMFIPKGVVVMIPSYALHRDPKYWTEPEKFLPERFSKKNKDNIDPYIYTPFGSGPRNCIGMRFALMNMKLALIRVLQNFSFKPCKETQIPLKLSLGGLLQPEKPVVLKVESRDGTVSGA
Sequence of Cytochrome P450 2D6 (P10635 whole entry): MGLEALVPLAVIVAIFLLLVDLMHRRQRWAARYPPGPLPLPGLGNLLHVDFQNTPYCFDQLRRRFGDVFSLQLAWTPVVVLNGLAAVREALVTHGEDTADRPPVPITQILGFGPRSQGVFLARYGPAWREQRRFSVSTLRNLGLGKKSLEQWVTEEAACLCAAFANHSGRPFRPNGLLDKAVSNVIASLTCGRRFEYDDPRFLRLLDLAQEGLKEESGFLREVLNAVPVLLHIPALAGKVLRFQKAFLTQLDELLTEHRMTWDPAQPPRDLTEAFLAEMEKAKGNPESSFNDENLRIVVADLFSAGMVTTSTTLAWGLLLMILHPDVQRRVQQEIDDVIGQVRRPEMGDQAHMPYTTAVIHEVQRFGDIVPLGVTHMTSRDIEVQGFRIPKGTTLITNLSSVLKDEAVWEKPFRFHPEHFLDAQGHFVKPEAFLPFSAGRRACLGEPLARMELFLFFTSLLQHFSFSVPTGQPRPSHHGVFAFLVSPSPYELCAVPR
Sequence of Cytochrome P450 2C9 (P11712 whole entry): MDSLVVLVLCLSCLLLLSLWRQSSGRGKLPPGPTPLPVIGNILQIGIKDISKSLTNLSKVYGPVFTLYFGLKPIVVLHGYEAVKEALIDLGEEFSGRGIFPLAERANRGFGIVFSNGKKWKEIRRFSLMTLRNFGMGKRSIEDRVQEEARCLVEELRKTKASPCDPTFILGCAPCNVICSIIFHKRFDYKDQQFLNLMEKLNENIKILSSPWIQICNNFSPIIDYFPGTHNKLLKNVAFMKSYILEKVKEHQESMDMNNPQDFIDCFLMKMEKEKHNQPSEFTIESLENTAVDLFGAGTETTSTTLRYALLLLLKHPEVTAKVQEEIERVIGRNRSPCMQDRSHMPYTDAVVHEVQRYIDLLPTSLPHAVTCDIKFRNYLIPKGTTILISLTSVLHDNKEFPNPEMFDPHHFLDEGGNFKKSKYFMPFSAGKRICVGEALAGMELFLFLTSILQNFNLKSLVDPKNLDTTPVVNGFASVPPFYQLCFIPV
Sequence of P2Y purinoceptor 12 (Q9H244 whole entry): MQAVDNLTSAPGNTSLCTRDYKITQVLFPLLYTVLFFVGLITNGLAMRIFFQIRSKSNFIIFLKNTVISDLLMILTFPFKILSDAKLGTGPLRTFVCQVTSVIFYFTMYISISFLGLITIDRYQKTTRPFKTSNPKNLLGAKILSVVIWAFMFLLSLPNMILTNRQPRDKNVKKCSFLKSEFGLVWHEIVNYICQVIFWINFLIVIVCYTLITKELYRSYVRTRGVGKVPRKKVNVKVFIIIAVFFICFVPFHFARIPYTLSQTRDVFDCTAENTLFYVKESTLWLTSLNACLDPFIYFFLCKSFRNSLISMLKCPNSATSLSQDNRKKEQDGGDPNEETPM
Sequence of Cytochrome P450 2C19 (P33261 whole entry): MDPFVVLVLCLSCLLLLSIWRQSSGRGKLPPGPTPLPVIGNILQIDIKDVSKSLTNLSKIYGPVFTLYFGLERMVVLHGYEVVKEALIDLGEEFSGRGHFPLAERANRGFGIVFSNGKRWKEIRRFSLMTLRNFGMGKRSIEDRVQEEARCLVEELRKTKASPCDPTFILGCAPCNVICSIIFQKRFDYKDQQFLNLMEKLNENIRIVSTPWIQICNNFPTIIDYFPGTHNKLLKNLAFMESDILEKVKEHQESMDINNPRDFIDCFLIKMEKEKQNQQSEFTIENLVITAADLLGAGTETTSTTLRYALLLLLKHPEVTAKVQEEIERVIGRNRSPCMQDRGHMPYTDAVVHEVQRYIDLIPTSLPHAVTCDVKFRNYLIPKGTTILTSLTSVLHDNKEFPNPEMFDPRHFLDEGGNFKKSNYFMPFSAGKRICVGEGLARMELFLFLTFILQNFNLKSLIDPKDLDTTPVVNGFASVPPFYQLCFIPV
Sequence of Voltage-gated inwardly rectifying potassium channel KCNH2 (Q12809 whole entry): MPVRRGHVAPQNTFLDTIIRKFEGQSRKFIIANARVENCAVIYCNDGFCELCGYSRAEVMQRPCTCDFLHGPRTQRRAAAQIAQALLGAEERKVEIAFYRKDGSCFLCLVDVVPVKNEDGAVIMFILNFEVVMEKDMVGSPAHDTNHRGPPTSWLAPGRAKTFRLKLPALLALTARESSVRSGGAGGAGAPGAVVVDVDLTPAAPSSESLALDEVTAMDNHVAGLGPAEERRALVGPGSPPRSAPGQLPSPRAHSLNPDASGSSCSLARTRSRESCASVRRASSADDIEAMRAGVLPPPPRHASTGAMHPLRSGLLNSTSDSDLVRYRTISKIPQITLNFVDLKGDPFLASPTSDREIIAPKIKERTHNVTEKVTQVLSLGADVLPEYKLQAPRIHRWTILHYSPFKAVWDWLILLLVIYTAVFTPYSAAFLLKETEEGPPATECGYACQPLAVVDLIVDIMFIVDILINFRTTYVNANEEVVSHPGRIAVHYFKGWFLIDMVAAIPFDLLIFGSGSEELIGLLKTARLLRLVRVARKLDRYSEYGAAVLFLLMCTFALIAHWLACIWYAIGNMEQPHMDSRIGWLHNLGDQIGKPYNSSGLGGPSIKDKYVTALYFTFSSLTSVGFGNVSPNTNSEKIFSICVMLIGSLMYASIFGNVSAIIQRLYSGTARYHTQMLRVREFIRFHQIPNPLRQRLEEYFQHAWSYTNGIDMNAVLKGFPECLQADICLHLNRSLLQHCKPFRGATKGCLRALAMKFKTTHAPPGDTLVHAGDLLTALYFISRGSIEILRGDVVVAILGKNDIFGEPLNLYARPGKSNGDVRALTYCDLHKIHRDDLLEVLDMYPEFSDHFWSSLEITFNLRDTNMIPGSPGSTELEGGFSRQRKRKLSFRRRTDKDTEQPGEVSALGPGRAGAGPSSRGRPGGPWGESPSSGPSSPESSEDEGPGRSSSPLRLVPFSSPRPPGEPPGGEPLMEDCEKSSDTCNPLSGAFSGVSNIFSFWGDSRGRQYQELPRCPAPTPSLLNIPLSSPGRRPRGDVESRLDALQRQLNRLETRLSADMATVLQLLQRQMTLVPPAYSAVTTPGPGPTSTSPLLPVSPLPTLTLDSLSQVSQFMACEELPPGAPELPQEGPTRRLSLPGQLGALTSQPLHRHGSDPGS
Sequence of P2Y purinoceptor 6 (Q15077 whole entry): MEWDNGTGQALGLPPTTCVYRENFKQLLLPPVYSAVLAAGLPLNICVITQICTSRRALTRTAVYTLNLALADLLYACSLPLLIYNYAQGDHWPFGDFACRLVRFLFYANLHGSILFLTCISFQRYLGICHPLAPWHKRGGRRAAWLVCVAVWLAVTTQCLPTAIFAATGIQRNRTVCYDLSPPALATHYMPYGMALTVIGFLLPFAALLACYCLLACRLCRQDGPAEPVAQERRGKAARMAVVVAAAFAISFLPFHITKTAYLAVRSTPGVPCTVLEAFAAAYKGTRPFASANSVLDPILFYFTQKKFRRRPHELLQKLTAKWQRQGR

For orientation: inhibition means the drop in the measured response relative to a control, in per cent. The low end stands for a response near the control, the high end for a response far below the control. Regarding `Cc1ccc(OCC(=O)Nc2ccc3ncsc3c2)cc1`, the inhibition in data set [1] (HEK293, dose 100.0 nM) was found to be 17.9%.
Consider `Cc1ccc(OCC(=O)Nc2ccc3sccc3c2)cc1`, for which the inhibition in [1] (setting [27]) was 41.3%.
`Cc1ccc(OCC(=O)Nc2ccc3cc[nH]c3c2)cc1`: in data set [1] (setting [27]), the inhibition was found to be 48.3%.
For orientation: pIC50 means the negative decadic logarithm of the IC50, by convention in mol/L. Take `O=Cc1ccc(OCC(=O)Nc2ccc3nc[nH]c3c2)cc1`: the pIC50 in data set [2] was 8.89. In data set [1] (setting [27]), this compound registered an inhibition of 95.2%.
With `CC(C)c1ccc(OCC(=O)Nc2ccc3nc[nH]c3c2)cc1`, the inhibition in data set [1] (HEK293, dose 100.0 nM) was 21.8%.
On to `O=C(COc1ccc(Br)cc1)Nc1ccc2cccnc2c1`, for which the inhibition in [1] (HEK293, dose 100.0 nM) was determined as 15.2%.
On to `Cc1ccc(OCC(=O)Nc2ccc3cn[nH]c3c2)cc1`, for which the inhibition in [1] (HEK293, dose 100.0 nM) is 11.3%.
One may read the half-life as the time needed for the level to fall by half in the phase considered. For orientation: Cmax means the highest concentration seen after dosing. What is called Tmax is the time from dosing to the highest level. As a reminder, the clearance is the volume of plasma or blood freed of the substance per unit of time. Read a low clearance as a low capacity for elimination. What is called CL/F is clearance divided by bioavailability, as obtained after extravascular dosing. As usually defined, the bioavailability is the share of a dose that reaches the circulation, judged against a reference dose that is usually intravenous. Read a low bioavailability as poor availability. Consider `O=C(COc1ccc(Br)cc1)Nc1ccc2nc[nH]c2c1`, for which the pIC50 is 4.05 in data set [3]; less than 4.00 in [4]; less than 4.30 in data set [7]; less than 4.30 in data set [8]; less than 4.30 in data set [9]; less than 4.30 in [10]. Moreover, the results for the pIC50 in data set [11] and in [12] were 4.71 and less than 4.30, respectively. In addition, the Activity entry in [5] and in data set [6] was “Non-Toxic” in each case. In addition, the half-life is greater than 300 min in data set [13]; greater than 3000 min in data set [14]; 196 min in [15]; 456 min in data set [17]; 756 min in data set [22]. Further, the peak concentration (Cmax) in data set [16] was determined as 1530 ng/mL; in [21] it was 2900 ng/mL. The Tmax is 18 min in data set [18] and 32 min in data set [23]. Besides, the AUC in data set [19] turned out to be 1765 µg/L/h; in [24] it was 2845 µg/L/h. The same compound showed a clearance in data set [20] of 3.5 mL/min/kg. The same compound yielded a CL/F in [25] of 14.8 mL/min/kg. Further, the bioavailability in [26] was determined as 75%.
As for `O=C(COc1ccc(Cl)cc1)Nc1ccc2cccnc2c1`, the inhibition in [1] (HEK293, dose 100.0 nM) was 12.1%.
`Cc1ccc(OCC(=O)Nc2ccc3ncoc3c2)cc1` yielded an inhibition in data set [1] (HEK293, dose 100.0 nM) of 32%.
With `O=Cc1ccc(OCC(=O)Nc2ccc3cccnc3c2)cc1`, in data set [1] (HEK293, dose 100.0 nM), the inhibition is 17.6%.
Take `O=C(COc1ccc(CO)cc1)Nc1ccc2cccnc2c1`: in data set [1] (HEK293, dose 100.0 nM), the inhibition worked out at 16.3%.
Still for that read-out and setting: in the case of `COc1ccc(OCC(=O)Nc2ccc3nc[nH]c3c2)cc1` it was 10.2%.
Same read-out and setting: next, `O=C(COc1ccc(C(F)(F)F)cc1)Nc1ccc2cccnc2c1`: 38.3%.
